Key:
[1] = tested on: healthy, non-smoking volunteers; assay: Gut transit time study with radio opaque markers, oral naloxone with or without oral codeine (Example 1); type: in vivo, human; conditions: for Gut transit time, Maximum / Gut transit time, Mean / Gut transit time, Median / Gut transit time, Minimum: codeine 30 mg bd
Description: The study consisted of four 10-day study periods, with at least two weeks between each, which were in a randomised order and the capsules being administered daily in a double blind manner. […] The capsules were administered twice a day (“bd”).
The study protocol was as follows: On day 0, subjects were given capsule B and on days 1 to 9, were given capsules A and B. On days 3 to 6, the subjects took transit markers; packaged in distinctly coloured capsules, each containing 20 different shaped radio opaque marker pellets (Dunn Clinical Nutrition). From day 7, the subjects' next two bowel motions were collected. A normal diet was adhered to throughout the study period and recorded on days 3 to 6.

[2] = tested on: patient with Irritable Bowel Syndrome; conditions: administered intermittently, similar dosage form to Example 3
[3] = tested on: male volunteers; assay: Gut transit time study, fixed doses of naloxone with or without codeine (Example 2); type: in vivo, human; conditions: naloxone 5, 10 and 20 mg bd, Gelucire 53/10:42/12 95:5, Eudragit LS coated; with 30 mg bd codeine in second week
Description: In a further study, the procedure of Example 1 was substantially followed using Gelucire™ 53/10 & Gelucire™ 42/12 95:5 as the polyglycolised glyceride matrix.
The gut transit time was measured at the end of the first week. During the second week, each volunteer was also given 30 mg bd codeine and gut transit times measured again at the end of the second week.

[4] = after parenteral administration; cited from earlier work
[5] = tested on: patients with advanced cancer; conditions: patients with advanced cancer treated with an opioid analgesic; cited from earlier work
[6] = in vivo; cited from earlier work
[7] = 8 patients whose transit time was increased by codeine (n = 8), naloxone 10 mg bd
[8] = all patients (n = 12), oral capsules twice a day, naloxone 10 mg bd
[9] = all patients (n = 12), oral capsules twice a day, naloxone 10 mg bd (Gelucire 50/13:42/12 82.5:17.5, enteric coated)

COc1ccc2c3c1O[C@H]1[C@@H](O)C=C[C@H]4[C@@H](C2)N(C)CC[C@@]341 [Codeine, codeine phosphate]
Gut transit time, Maximum [1, 7]: 84.00 h
Gut transit time, Mean [1, 7]: 66.17 h
Gut transit time, Median [1, 7]: 67.85 h
Gut transit time, Minimum [1, 7]: 50.42 h
Gut transit time, Maximum [1, 8]: 84.00 h
Gut transit time, Mean [1, 8]: 57.27 h
Gut transit time, Median [1, 8]: 56.76 h
Gut transit time, Minimum [1, 9]: 25.22 h

C=CCN1CC[C@]23c4c5ccc(O)c4O[C@H]2C(=O)CC[C@@]3(O)[C@H]1C5 [Naloxone, 17-allyl-6-deoxy-7,8-dihydro-14-hydroxy-6-oxonormorphine]
Clinical outcome in irritable bowel syndrome [2]: substantial clinical benefit
Gut transit time, Maximum [1, 7]: 63.91 h
Gut transit time, Mean [1, 7]: 41.41 h
Gut transit time, Median [1, 7]: 37.95 h
Gut transit time, Minimum [1, 7]: 27.40 h
Effect on gut transit time (in words) ([1]; Example 1, naloxone 10 mg bd alone or with codeine 30 mg bd): reduced gut transit time
Gut transit time, Maximum [1, 8]: 63.91 h
Gut transit time, Mean [1, 8]: 42.13 h
Gut transit time, Median [1, 8]: 38.85 h
Gut transit time, Minimum [1, 9]: 27.40 h
Effect on gut transit time (in words) [3]: accelerate gut transit time
Plasma half-life [4]: about 1 h
Laxative effect [5]: produce a laxative effect

C[N@+]1(CC2CC2)CC[C@]23c4c5ccc(O)c4O[C@H]2C(=O)CC[C@@]3(O)[C@H]1C5 [methylnaltrexone]
Crossing of the blood-brain barrier [6]: do not cross the blood-brain barrier to a significant extent

— patent US6734188B1, “Composition for treatment of constipation and irritable bowel syndrome” (priority 1999, dated 2004)
